Experiments:
[1] = tested on: schizophrenic patients; details: cited from earlier work; for time to respond to antipsychotics, -141C Del allele carriers versus -141C Ins allele carriers: rs1799732 SNP; for time to respond to antipsychotics, -141C Del allele carriers versus -141C Ins allele carriers / improvement on treatment, C/C genotype versus non-C/C genotype: schizophrenic patients; for improvement on treatment, C/C genotype versus non-C/C genotype: rs6275 SNP
[2] = tested on: patients with an acute exacerbation of schizophrenia; assay: Phase III clinical trial of iloperidone, change from baseline in PANSS-T by DRD2/ANKK1 SNP genotype; format: in vivo, human; details: iloperidone 24 mg/d; for PANSS-T mean change: day 14, white patients; for mean change in PANSS-T: day 14, white subpopulation
Description: The clinical trial evaluated the efficacy of iloperidone in treating patients with diagnosed schizophrenia. The study, its results, and the inferences drawn therefrom are described below.
A four-week, randomized, double-blind, placebo- and ziprasidone-controlled, multicenter inpatient phase III clinical trial of iloperidone was conducted, including 409 individuals, to assess the efficacy of iloperidone, as measured by changes in the Positive and Negative Syndrome Scale Total (PANSS-T).
Patients, all diagnosed with an acute exacerbation of schizophrenia, were randomly assigned to one of three groups. A first group (n=218) received 24 mg/d (12 mg bid) of iloperidone, a second group (n=103) received 160 mg/d (80 mg bid) ziprasidone, and a third group (n=105) received a placebo. Efficacy was measured by a change from baseline in PANSS-T score.

SMILES: CN(C)CCCN1c2ccccc2Sc2ccc(Cl)cc21 [chlorpromazine]
- time to respond to antipsychotics, -141C Del allele carriers versus -141C Ins allele carriers [1]: significantly longer time to respond

SMILES: O=C(CCCN1CCC(O)(c2ccc(Cl)cc2)CC1)c1ccc(F)cc1 [haloperidol]
- improvement on treatment, C/C genotype versus non-C/C genotype [1]: greater improvement

SMILES: COc1cc(C(C)=O)ccc1OCCCN1CCC(c2noc3cc(F)ccc23)CC1 [iloperidone, 1-[4-[3-[4-(6-flouro-1,2-benzisoxazol-3-yl)-1-piperidinyl]propoxy]-3-methoxyphenyl]ethanone]
- PANSS-T mean change ([2]; rs2283265 G/T genotype): −2.4 (±3.0)
- PANSS-T mean change ([2]; rs2283265 non-G/T genotype): −11.8 (±2.0)
- mean change in PANSS-T ([2]; rs1800497 (Taq1A) A1/A2 patients): −2.1 (±2.7)
- mean change in PANSS-T ([2]; rs1800497 (Taq1A) non-A1/A2 patients): −12.7 (±2.1)

SMILES: Cc1nc2n(c(=O)c1CCN1CCC(c3noc4cc(F)ccc34)CC1)CCCC2 [risperidol]
- improvement on treatment, C/C genotype versus non-C/C genotype [1]: greater improvement

SMILES: Cc1nc2n(c(=O)c1CCN1CCC(c3noc4cc(F)ccc34)CC1)CCCC2 [risperidone]
- time to respond to antipsychotics, -141C Del allele carriers versus -141C Ins allele carriers [1]: significantly longer time to respond
- response to treatment, -241A allele carriers versus -241G allele carriers ([1]; rs1799978 SNP, some patients): greater response
